± gives the expanded uncertainty stated by the source.
Assay: activity coefficient (dimensionless); of the first substance listed, at infinite dilution; xn = mol fraction of the nth substance listed
Details: 101.33 kPa, Liquid, Chromatography, x1 = 0

Row | SMILES | activity coefficient (318.15 K) | activity coefficient (328.15 K) | activity coefficient (338.15 K) | activity coefficient (348.15 K) | activity coefficient (358.15 K) | activity coefficient (368.15 K) | activity coefficient (298.15 K) | activity coefficient (308.15 K)
1 | Cc1ccccc1C [1,2-dimethylbenzene] + CC[N+]1(C)CCOCC1.N#CN=C=[N-] | 10.8 ± 0.7 | 11.1 ± 0.8 | 11.4 ± 0.8 | 11.7 ± 0.8 | 12 ± 0.8 | 12.4 ± 0.8 |  | 
2 | C#CCCC [1-pentyne] + CC[N+]1(C)CCOCC1.N#CN=C=[N-] | 14.3 ± 1 | 14.8 ± 1 | 15.4 ± 1.1 | 15.9 ± 1.1 | 16.5 ± 1.1 | 17 ± 1.2 |  | 
3 | C=CCCCCC [1-heptene] + CC[N+]1(C)CCOCC1.N#CN=C=[N-] | 288 ± 20 | 268 ± 18 | 251 ± 17 | 236 ± 16 | 222 ± 15 | 210 ± 14 |  | 
4 | C=COC(C)=O [vinyl acetate] + CC[N+]1(C)CCOCC1.N#CN=C=[N-] | 4.22 ± 0.29 | 4.41 ± 0.3 | 4.6 ± 0.31 | 4.78 ± 0.33 | 4.97 ± 0.34 | 5.15 ± 0.35 |  | 
5 | C1COCCO1 [1,4-dioxane] + CC[N+]1(C)CCOCC1.N#CN=C=[N-] | 1.57 ± 0.1 | 1.69 ± 0.11 | 1.82 ± 0.12 | 1.94 ± 0.13 | 2.06 ± 0.14 | 2.19 ± 0.15 |  | 
6 | CC(C)=O [acetone] + CC[N+]1(C)CCOCC1.N#CN=C=[N-] | 1.61 ± 0.11 | 1.7 ± 0.11 | 1.8 ± 0.12 | 1.9 ± 0.13 | 1.99 ± 0.14 | 2.09 ± 0.14 |  | 
7 | Cc1ccccc1 [toluene] + CC[N+]1(C)CCOCC1.N#CN=C=[N-] | 7.87 ± 0.54 | 8.1 ± 0.55 | 8.33 ± 0.57 | 8.56 ± 0.58 | 8.77 ± 0.6 | 8.99 ± 0.61 |  | 
8 | CC(C)(C)O [2-methylpropan-2-ol] + CC[N+]1(C)CCOCC1.N#CN=C=[N-] | 2.77 ± 0.19 | 2.78 ± 0.19 | 2.8 ± 0.19 | 2.82 ± 0.19 | 2.83 ± 0.19 | 2.85 ± 0.19 |  | 
9 | C1CCCCCC1 [cycloheptane] + CC[N+]1(C)CCOCC1.N#CN=C=[N-] | 215 ± 15 | 202 ± 14 | 189 ± 13 | 179 ± 12 | 169 ± 12 | 161 ± 11 |  | 
10 | CCC[N+](=O)[O-] [1-nitropropane] + CC[N+]1(C)CCOCC1.N#CN=C=[N-] | 2.29 ± 0.16 | 2.39 ± 0.16 | 2.49 ± 0.17 | 2.59 ± 0.18 | 2.68 ± 0.18 | 2.78 ± 0.19 |  | 
11 | CCC(C)O (centres undefined) [butan-2-ol] + CC[N+]1(C)CCOCC1.N#CN=C=[N-] | 2.98 ± 0.2 | 2.94 ± 0.2 | 2.9 ± 0.2 | 2.86 ± 0.19 | 2.83 ± 0.19 | 2.81 ± 0.19 |  | 
12 | Cc1cccc(C)c1 [1,3-dimethylbenzene] + CC[N+]1(C)CCOCC1.N#CN=C=[N-] | 13.8 ± 0.9 | 14.1 ± 1 | 14.4 ± 1 | 14.7 ± 1 | 14.9 ± 1 | 15.2 ± 1 |  | 
13 | C#CCCCCCC [1-octyne] + CC[N+]1(C)CCOCC1.N#CN=C=[N-] | 84.2 ± 5.8 | 84.6 ± 5.8 | 84.9 ± 5.8 | 85.6 ± 5.9 | 86.1 ± 5.9 | 86.8 ± 5.9 |  | 
14 | CC(C)CO [2-methyl-1-propanol] + CC[N+]1(C)CCOCC1.N#CN=C=[N-] | 3.01 ± 0.2 | 2.93 ± 0.2 | 2.86 ± 0.19 | 2.79 ± 0.19 | 2.73 ± 0.19 | 2.67 ± 0.18 |  | 
15 | CCCC=O [butanal] + CC[N+]1(C)CCOCC1.N#CN=C=[N-] | 3.51 ± 0.24 | 3.65 ± 0.25 | 3.79 ± 0.26 | 3.92 ± 0.27 | 4.04 ± 0.28 | 4.17 ± 0.28 |  | 
16 | CC#N [acetonitrile] + CC[N+]1(C)CCOCC1.N#CN=C=[N-] | 0.966 ± 0.061 | 1.01 ± 0.06 | 1.06 ± 0.07 | 1.11 ± 0.07 | 1.16 ± 0.07 | 1.21 ± 0.08 |  | 

Further lines, results first:

Row | activity coefficient (318.15 K) | activity coefficient (328.15 K) | activity coefficient (338.15 K) | activity coefficient (348.15 K) | activity coefficient (358.15 K) | activity coefficient (368.15 K) | activity coefficient (298.15 K) | activity coefficient (308.15 K) | SMILES
17 | 5.12 ± 0.35 | 5.36 ± 0.37 | 5.59 ± 0.38 | 5.82 ± 0.4 | 6.04 ± 0.41 | 6.26 ± 0.43 |  |  | CCC(=O)OC [methyl propanoate] + CC[N+]1(C)CCOCC1.N#CN=C=[N-]
18 | 5.23 ± 0.36 | 5.44 ± 0.37 | 5.64 ± 0.38 | 5.84 ± 0.4 | 6.03 ± 0.41 | 6.23 ± 0.42 |  |  | CCC(=O)CC [pentan-3-one] + CC[N+]1(C)CCOCC1.N#CN=C=[N-]
19 | 6.38 ± 0.43 | 6.59 ± 0.45 | 6.81 ± 0.46 | 7.01 ± 0.48 | 7.22 ± 0.49 | 7.43 ± 0.51 |  |  | C=Cc1ccccc1 [styrene] + CC[N+]1(C)CCOCC1.N#CN=C=[N-]
20 |  | 123 ± 8 | 125 ± 9 | 127 ± 9 | 128 ± 9 | 130 ± 9 |  |  | CC(C)OC(C)C [diisopropyl ether] + CC[N+]1(C)CCOCC1.N#CN=C=[N-]
21 | 0.324 ± 0.032 | 0.337 ± 0.032 | 0.35 ± 0.032 | 0.364 ± 0.033 | 0.376 ± 0.033 | 0.39 ± 0.034 |  |  | O [water] + CC[N+]1(C)CCOCC1.N#CN=C=[N-]
22 | 50.7 ± 3.5 | 50 ± 3.4 | 49.4 ± 3.4 |  |  |  |  |  | C1=CCCCC1 [cyclohexene] + CC[N+]1(C)CCOCC1.N#CN=C=[N-]
23 | 163 ± 11 | 152 ± 10 | 141 ± 10 |  |  |  | 193 ± 13 | 177 ± 12 | C=CCCCC [hex-1-ene] + CC[N+]1(C)CCOCC1.N#CN=C=[N-]
24 | 168 ± 12 | 152 ± 10 | 138 ± 9 | 126 ± 9 | 115 ± 8 | 106 ± 7 |  |  | C1CCCCC1 [cyclohexane] + CC[N+]1(C)CCOCC1.N#CN=C=[N-]
25 | 496 ± 34 | 445 ± 31 | 402 ± 28 | 364 ± 25 | 333 ± 23 | 307 ± 21 |  |  | C=CCCCCCC [oct-1-ene] + CC[N+]1(C)CCOCC1.N#CN=C=[N-]
26 | 313 ± 22 | 293 ± 20 | 273 ± 19 | 257 ± 18 | 242 ± 17 | 229 ± 16 |  |  | C1CCCCCCC1 [cyclooctane] + CC[N+]1(C)CCOCC1.N#CN=C=[N-]
27 | 5.67 ± 0.39 | 5.93 ± 0.4 | 6.19 ± 0.42 | 6.45 ± 0.44 | 6.71 ± 0.46 | 6.96 ± 0.47 |  |  | CCOC(C)=O [ethyl acetate] + CC[N+]1(C)CCOCC1.N#CN=C=[N-]
28 | 1540 ± 110 | 1350 ± 93 | 1190 ± 82 | 1050 ± 73 | 945 ± 65 | 850 ± 59 |  |  | CCCCCCCCC [nonane] + CC[N+]1(C)CCOCC1.N#CN=C=[N-]
29 | 3.3 ± 0.22 | 3.44 ± 0.23 | 3.57 ± 0.24 | 3.7 ± 0.25 | 3.82 ± 0.26 | 3.95 ± 0.27 |  |  | C1CCOC1 [tetrahydrofuran] + CC[N+]1(C)CCOCC1.N#CN=C=[N-]

Source: the NIST ThermoML archive (doi:10.1016/j.jct.2018.02.014)
